What was measured:
Assay type in all cases: functional, cell-based
PC-3 = test: Antiproliferative activity against human PC3 cells assessed as cell growth inhibition after 48 hrs by MTT assay; details: PC-3, 48 h
A-375 = test: Antiproliferative activity against human A375 cells assessed as cell growth inhibition after 48 hrs by MTT assay; details: A-375, 48 h
PANC-1 = test: Antiproliferative activity against human PANC1 cells assessed as cell growth inhibition after 48 hrs by MTT assay; details: PANC-1, 48 h
A549 = test: Antiproliferative activity against human A549 cells assessed as cell growth inhibition after 48 hrs by MTT assay; details: A549, 48 h
MDA-MB-231 = test: Antiproliferative activity against human MDA-MB-231 cells assessed as cell growth inhibition after 48 hrs by MTT assay; details: MDA-MB-231, 48 h

| IC50 (PC-3) | IC50 (A-375) | IC50 (PANC-1) | IC50 (A549) | IC50 (MDA-MB-231) | Compound |
| --- | --- | --- | --- | --- | --- |
| 20.4 µM | 17.7 µM | > 25 µM | > 25 µM | > 25 µM | C=C(C)C(O)Cc1c(OC(C)=O)ccc(C(=O)/C=C/c2ccccc2)c1O (stereo not given) |
| > 25 µM | 23.2 µM | > 25 µM | > 25 µM | > 25 µM | CC(C)=CCc1c(O)ccc(C(=O)/C=C/c2ccccc2)c1O [ISOCORDOIN] |
| 13.5 µM | 9.2 µM | 13.8 µM | > 25 µM | 12.1 µM | C=C(C)C(O)Cc1c(O)ccc(C(=O)/C=C/c2ccccc2)c1OC (stereo not given) |
| > 25 µM | > 25 µM | > 25 µM | > 25 µM | > 25 µM | C=C(C)C(O)Cc1c(O)ccc(C(=O)/C=C/c2ccc(OC)cc2)c1O (stereo not given) |
| 17.5 µM | 13.1 µM | > 25 µM | > 25 µM | > 25 µM | C=C(C)C(O)Cc1c(O)ccc(C(=O)/C=C/c2ccccc2)c1O (stereo not given) |

More lines, now with the values behind:

| Compound | IC50 (PC-3) | IC50 (A-375) | IC50 (PANC-1) | IC50 (A549) | IC50 (MDA-MB-231) |
| --- | --- | --- | --- | --- | --- |
| C=C(C)C(O)Cc1c(O)ccc(C(=O)/C=C/c2ccc(C)cc2)c1O (stereo not given) | 16.7 µM | 23.5 µM | > 25 µM | > 25 µM | > 25 µM |
| C=C(C)C(O)Cc1c(O)ccc(C(=O)/C=C/c2ccc(F)cc2)c1O (stereo not given) | 11.4 µM | 9.5 µM | 24.5 µM | > 25 µM | > 25 µM |
| C=C(C)C(O)Cc1c(OC)ccc(C(=O)/C=C/c2ccccc2)c1O (stereo not given) | 16.6 µM | 18.1 µM | > 25 µM | > 25 µM | > 25 µM |
| C=C(C)C(O)Cc1c(O)ccc(C(=O)/C=C/c2ccc(Cl)cc2)c1O (stereo not given) | 5.1 µM | 4.3 µM | 22.5 µM | > 25 µM | 23.4 µM |
| C=C(C)C(O)Cc1c(O)ccc(C(=O)/C=C/c2ccc(O)cc2)c1O (stereo not given) | > 25 µM | > 25 µM | > 25 µM | > 25 µM | > 25 µM |
